# Assay results reported in patent publication US20230085307A1, “PYRIDAZINONE COMPOUND AND HERBICIDE” (NISSAN CHEMICAL CORPORATION, priority 2019, published 2023).
# Assays:
# green foxtail [1] = test: Test Example 5: herbicidal effect by foliage application, plastic box (Table 20, symbol G); assay type: in vivo, green foxtail (Setaria viridis); conditions: 320 g/ha, evaluated three weeks after application
# Outline: (§1)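 Sow seeds spot-wise in sterilized diluvial soil; cover with ~1.5 cm soil. Grow 14 days in greenhouse, 25° C. to 30° C. Spray foliage with emulsion diluted to predetermined amount. Rate effect after 3 weeks.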
# chickweed [2] = test: Test Example 4: herbicidal effect by soil treatment (Table 19, symbol P); assay type: in vivo, common chickweed (Stellaria media); conditions: amount of applied herbicide 320 g/ha
# Outline: (§2)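 Soil-surface application: an emulsion agent diluted with water to the predetermined dose is sprayed uniformly over seeds lying under roughly 1.5 cm of sterilized diluvial soil. Boxes stay in a greenhouse at 25° C. to 30° C. Three weeks later, each species is graded on previously defined criteria.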
# late watergrass = test: Test Example 1: herbicidal activity, application before weed generation under submerged conditions (Table 16, symbol A); assay type: in vivo, late watergrass (Echinochloa oryzicola)
# Outline: (§3)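 Submerged Wagner pots (alluvial soil, 4 cm water) sown with weed seeds and planted with 2.5-leaf rice seedlings; emulsifiable concentrate diluted in water applied to water surface on sowing day. Held in greenhouse at 25-30 °C; injury scored 0-5 by herbicidal rate after three weeks.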
# windgrass [3] = test: Test Example 5: herbicidal effect by foliage application, plastic box (Table 20, symbol L); assay type: in vivo, windgrass (Apera spica-venti); conditions: foliage application, 320 g/ha, evaluated three weeks after application
# Outline: as §1
# wild oat [4] = test: Test Example 5: herbicidal effect by foliage application, plastic box (Table 20, symbol I); assay type: in vivo, wild oat (Avena fatua); conditions: 320 g/ha, evaluated three weeks after application
# Outline: as §1
# Japanese bulrush = test: Test Example 1: herbicidal activity, application before weed generation under submerged conditions (Table 16, symbol B); assay type: in vivo, Japanese bulrush (Schoenoplectus juncoides)
# Outline: as §3
# redroot pigweed [5] = test: Test Example 4: herbicidal effect by soil treatment (Table 19, symbol N); assay type: in vivo, redroot pigweed (Amaranthus retroflexus); conditions: amount of applied herbicide 320 g/ha
# Outline: as §2
# wild oat [6] = test: Test Example 4: herbicidal effect by soil treatment (Table 19, symbol I); assay type: in vivo, wild oat (Avena fatua); conditions: amount of applied herbicide 320 g/ha
# Outline: as §2
# barnyard grass [7] = test: Test Example 4: herbicidal effect by soil treatment (Table 19, symbol H); assay type: in vivo, barnyard grass (Echinochloa crus-galli); conditions: amount of applied herbicide 320 g/ha
# Outline: as §2
# rice flat sedge = test: Test Example 3: herbicidal effect by foliage application, Wagner pot (Table 18, symbol E); assay type: in vivo, rice flat sedge (Cyperus iria)
# Outline: (§4)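 Plants were sown in alluvial soil held under 0.1–0.5 cm standing water and grown 14 days in a greenhouse at 25–30 °C. An emulsifiable formulation, water-diluted to the set dose, was then sprayed onto the foliage, and effects were scored three weeks later using previously defined criteria.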
# southern crabgrass [8] = test: Test Example 4: herbicidal effect by soil treatment (Table 19, symbol F); assay type: in vivo, southern crabgrass (Digitaria ciliaris); conditions: amount of applied herbicide 320 g/ha
# Outline: as §2
# velvetleaf [9] = test: Test Example 5: herbicidal effect by foliage application, plastic box (Table 20, symbol M); assay type: in vivo, velvetleaf (Abutilon theophrasti); conditions: 320 g/ha, evaluated three weeks after application
# Outline: as §1
# barnyard grass [10] = test: Test Example 5: herbicidal effect by foliage application, plastic box (Table 20, symbol H); assay type: in vivo, barnyard grass (Echinochloa crus-galli); conditions: 320 g/ha, evaluated three weeks after application
# Outline: as §1
# persian speedwell [11] = test: Test Example 5: herbicidal effect by foliage application, plastic box (Table 20, symbol R); assay type: in vivo, Persian speedwell (Veronica persica); conditions: 320 g/ha, evaluated three weeks after application
# Outline: as §1
# persian speedwell [12] = test: Test Example 4: herbicidal effect by soil treatment (Table 19, symbol R); assay type: in vivo, Persian speedwell (Veronica persica); conditions: amount of applied herbicide 320 g/ha
# Outline: as §2
# oval-leafed pondweed = test: Test Example 1: herbicidal activity, application before weed generation under submerged conditions (Table 16, symbol C); assay type: in vivo, oval-leafed pondweed (Monochoria vaginalis)
# Outline: as §3
# blackgrass [13] = test: Test Example 4: herbicidal effect by soil treatment (Table 19, symbol J); assay type: in vivo, blackgrass (Alopecurus myosuroides); conditions: amount of applied herbicide 320 g/ha
# Outline: as §2
# chickweed [14] = test: Test Example 5: herbicidal effect by foliage application, plastic box (Table 20, symbol P); assay type: in vivo, common chickweed (Stellaria media); conditions: 320 g/ha, evaluated three weeks after application
# Outline: as §1
# lambsquarters [15] = test: Test Example 5: herbicidal effect by foliage application, plastic box (Table 20, symbol O); assay type: in vivo, lambsquarters (Chenopodium album); conditions: 320 g/ha, evaluated three weeks after application
# Outline: as §1
# blackgrass [16] = test: Test Example 5: herbicidal effect by foliage application, plastic box (Table 20, symbol J); assay type: in vivo, blackgrass (Alopecurus myosuroides); conditions: 320 g/ha, evaluated three weeks after application
# Outline: as §1
# velvetleaf [17] = test: Test Example 4: herbicidal effect by soil treatment (Table 19, symbol M); assay type: in vivo, velvetleaf (Abutilon theophrasti); conditions: amount of applied herbicide 320 g/ha
# Outline: as §2
# Chinese sprangletop = test: Test Example 3: herbicidal effect by foliage application, Wagner pot (Table 18, symbol D); assay type: in vivo, chinese sprangletop (Leptochloa chinensis)
# Outline: as §4
# windgrass [18] = test: Test Example 4: herbicidal effect by soil treatment (Table 19, symbol L); assay type: in vivo, windgrass (Apera spica-venti); conditions: amount of applied herbicide 320 g/ha
# Outline: as §2
# lambsquarters [19] = test: Test Example 4: herbicidal effect by soil treatment (Table 19, symbol O); assay type: in vivo, lambsquarters (Chenopodium album); conditions: amount of applied herbicide 320 g/ha
# Outline: as §2
# green foxtail [20] = test: Test Example 4: herbicidal effect by soil treatment (Table 19, symbol G); assay type: in vivo, green foxtail (Setaria viridis); conditions: amount of applied herbicide 320 g/ha
# Outline: as §2
# barnyard grass [21] = test: Test Example 3: herbicidal effect by foliage application, Wagner pot (Table 18, symbol H); assay type: in vivo, barnyard grass (Echinochloa crus-galli)
# Outline: as §4
# southern crabgrass [22] = test: Test Example 5: herbicidal effect by foliage application, plastic box (Table 20, symbol F); assay type: in vivo, southern crabgrass (Digitaria ciliaris); conditions: 320 g/ha, evaluated three weeks after application
# Outline: as §1
# Italian ryegrass [23] = test: Test Example 5: herbicidal effect by foliage application, plastic box (Table 20, symbol K); assay type: in vivo, Italian ryegrass (Lolium multiflorum); conditions: 320 g/ha, evaluated three weeks after application
# Outline: as §1
# Italian ryegrass [24] = test: Test Example 4: herbicidal effect by soil treatment (Table 19, symbol K); assay type: in vivo, Italian ryegrass (Lolium multiflorum); conditions: amount of applied herbicide 320 g/ha
# Outline: as §2
# redroot pigweed [25] = test: Test Example 5: herbicidal effect by foliage application, plastic box (Table 20, symbol N); assay type: in vivo, redroot pigweed (Amaranthus retroflexus); conditions: 320 g/ha, foliage application after 14-day growth, evaluated three weeks after application
# Outline: as §1
# [26] = amount of applied herbicide 320 g/ha
# [27] = foliage application after 14-day growth
smiles,measurement,setting,value
CCCOc1ccc2sc(-c3ccc(F)cc3OC)c(-c3c(O)c(C)nn(C)c3=O)c2c1 [2-173],herbicidal effect on G: green foxtail (criteria 0-5),green foxtail [1]; foliage application,0 (Herbicidal rate of 5% or less (almost no effect))
same,"P: chickweed, herbicidal effect rating",chickweed [2],3 (Herbicidal rate of 40% or more and less than 70%)
same,Herbicidal effect on A: late watergrass (grade 0-5),late watergrass; 320 g/ha applied herbicide,2 (Herbicidal rate of 20% or more and less than 40%)
same,herbicidal effect on L: windgrass (criteria 0-5),windgrass [3],4 (Herbicidal rate of 70% or more and less than 90%)
same,herbicidal effect on I: wild oat (criteria 0-5),wild oat [4]; foliage application,0 (Herbicidal rate of 5% or less (almost no effect))
same,Herbicidal effect on B: Japanese bulrush (grade 0-5),Japanese bulrush; 320 g/ha applied herbicide,0 (Herbicidal rate of 5% or less (almost no effect))
same,"N: redroot pigweed, herbicidal effect rating",redroot pigweed [5],0 (Herbicidal rate of 5% or less (almost no effect))
same,"I: wild oat, herbicidal effect rating",wild oat [6],0 (Herbicidal rate of 5% or less (almost no effect))
same,"H: barnyard grass, herbicidal effect rating",barnyard grass [7],0 (Herbicidal rate of 5% or less (almost no effect))
same,herbicidal effect on E: rice flat sedge,rice flat sedge; [26],2 (Herbicidal rate of 20% or more and less than 40%)
same,"F: southern crabgrass, herbicidal effect rating",southern crabgrass [8],0 (Herbicidal rate of 5% or less (almost no effect))
same,herbicidal effect on M: velvetleaf (criteria 0-5),velvetleaf [9]; foliage application,0 (Herbicidal rate of 5% or less (almost no effect))
same,herbicidal effect on H: barnyard grass (criteria 0-5),barnyard grass [10]; foliage application,0 (Herbicidal rate of 5% or less (almost no effect))
same,herbicidal effect on R: persian speedwell (criteria 0-5),persian speedwell [11]; foliage application,5 (Herbicidal rate of 90% or more (almost completely withered))
same,"R: persian speedwell, herbicidal effect rating",persian speedwell [12],0 (Herbicidal rate of 5% or less (almost no effect))
same,Herbicidal effect on C: oval-leafed pondweed (grade 0-5),oval-leafed pondweed; 320 g/ha applied herbicide,0 (Herbicidal rate of 5% or less (almost no effect))
same,"J: blackgrass, herbicidal effect rating",blackgrass [13],0 (Herbicidal rate of 5% or less (almost no effect))
same,herbicidal effect on P: chickweed (criteria 0-5),chickweed [14]; foliage application,5 (Herbicidal rate of 90% or more (almost completely withered))
same,herbicidal effect on O: lambsquarters (criteria 0-5),lambsquarters [15]; foliage application,1 (Herbicidal rate of 5% or more and less than 20%)
same,herbicidal effect on J: blackgrass (criteria 0-5),blackgrass [16]; foliage application,4 (Herbicidal rate of 70% or more and less than 90%)
same,"M: velvetleaf, herbicidal effect rating",velvetleaf [17],0 (Herbicidal rate of 5% or less (almost no effect))
same,herbicidal effect on D: Chinese sprangletop,Chinese sprangletop; [26],2 (Herbicidal rate of 20% or more and less than 40%)
same,"L: windgrass, herbicidal effect rating",windgrass [18],0 (Herbicidal rate of 5% or less (almost no effect))
same,"O: lambsquarters, herbicidal effect rating",lambsquarters [19],0 (Herbicidal rate of 5% or less (almost no effect))
same,"G: green foxtail, herbicidal effect rating",green foxtail [20],0 (Herbicidal rate of 5% or less (almost no effect))
same,herbicidal effect on H: barnyard grass,barnyard grass [21]; [26],3 (Herbicidal rate of 40% or more and less than 70%)
same,herbicidal effect on F: southern crabgrass (criteria 0-5),southern crabgrass [22]; foliage application,0 (Herbicidal rate of 5% or less (almost no effect))
same,herbicidal effect on K: Italian ryegrass (criteria 0-5),Italian ryegrass [23]; foliage application,0 (Herbicidal rate of 5% or less (almost no effect))
same,"K: Italian ryegrass, herbicidal effect rating",Italian ryegrass [24],0 (Herbicidal rate of 5% or less (almost no effect))
COc1ccc(-c2sc3c(Cl)cccc3c2-c2c(O)c(C)nn(C)c2=O)cc1 [4-023],herbicidal effect on G: green foxtail (evaluation grade 0-5),green foxtail [1]; [27],1 (Herbicidal rate of 5% or more and less than 20%)
same,"Herbicidal effect by soil treatment, P: chickweed",chickweed [2],5 (Herbicidal rate of 90% or more (almost completely withered))
same,"Herbicidal effect, A: late watergrass",late watergrass; [26],3 (Herbicidal rate of 40% or more and less than 70%)
same,herbicidal effect on N: redroot pigweed (evaluation grade 0-5),redroot pigweed [25],1 (Herbicidal rate of 5% or more and less than 20%)
same,herbicidal effect on I: wild oat (evaluation grade 0-5),wild oat [4]; [27],0 (Herbicidal rate of 5% or less (almost no effect))
same,"Herbicidal effect, B: Japanese bulrush",Japanese bulrush; [26],0 (Herbicidal rate of 5% or less (almost no effect))
same,"Herbicidal effect by soil treatment, N: redroot pigweed",redroot pigweed [5],2 (Herbicidal rate of 20% or more and less than 40%)
same,"Herbicidal effect by soil treatment, I: wild oat",wild oat [6],0 (Herbicidal rate of 5% or less (almost no effect))
same,"Herbicidal effect by soil treatment, H: barnyard grass",barnyard grass [7],0 (Herbicidal rate of 5% or less (almost no effect))
same,herbicidal effect on rice flat sedge (E),rice flat sedge; 320 g/ha,5 (Herbicidal rate of 90% or more (almost completely withered))
same,"Herbicidal effect by soil treatment, F: southern crabgrass",southern crabgrass [8],0 (Herbicidal rate of 5% or less (almost no effect))
same,herbicidal effect on M: velvetleaf (evaluation grade 0-5),velvetleaf [9]; [27],3 (Herbicidal rate of 40% or more and less than 70%)
same,herbicidal effect on H: barnyard grass (evaluation grade 0-5),barnyard grass [10]; [27],2 (Herbicidal rate of 20% or more and less than 40%)
same,herbicidal effect on R: persian speedwell (evaluation grade 0-5),persian speedwell [11]; [27],0 (Herbicidal rate of 5% or less (almost no effect))
same,"Herbicidal effect by soil treatment, R: persian speedwell",persian speedwell [12],0 (Herbicidal rate of 5% or less (almost no effect))
same,"Herbicidal effect, C: oval-leafed pondweed",oval-leafed pondweed; [26],0 (Herbicidal rate of 5% or less (almost no effect))
same,"Herbicidal effect by soil treatment, J: blackgrass",blackgrass [13],0 (Herbicidal rate of 5% or less (almost no effect))
same,herbicidal effect on P: chickweed (evaluation grade 0-5),chickweed [14]; [27],5 (Herbicidal rate of 90% or more (almost completely withered))
same,herbicidal effect on O: lambsquarters (evaluation grade 0-5),lambsquarters [15]; [27],2 (Herbicidal rate of 20% or more and less than 40%)
same,herbicidal effect on J: blackgrass (evaluation grade 0-5),blackgrass [16]; [27],0 (Herbicidal rate of 5% or less (almost no effect))
same,"Herbicidal effect by soil treatment, M: velvetleaf",velvetleaf [17],0 (Herbicidal rate of 5% or less (almost no effect))
same,herbicidal effect on Chinese sprangletop (D),Chinese sprangletop; 320 g/ha,3 (Herbicidal rate of 40% or more and less than 70%)
same,"Herbicidal effect by soil treatment, L: windgrass",windgrass [18],0 (Herbicidal rate of 5% or less (almost no effect))
same,"Herbicidal effect by soil treatment, O: lambsquarters",lambsquarters [19],3 (Herbicidal rate of 40% or more and less than 70%)
same,"Herbicidal effect by soil treatment, G: green foxtail",green foxtail [20],0 (Herbicidal rate of 5% or less (almost no effect))
same,herbicidal effect on barnyard grass (H),barnyard grass [21]; 320 g/ha,5 (Herbicidal rate of 90% or more (almost completely withered))
same,herbicidal effect on F: southern crabgrass (evaluation grade 0-5),southern crabgrass [22]; [27],0 (Herbicidal rate of 5% or less (almost no effect))
same,herbicidal effect on K: Italian ryegrass (evaluation grade 0-5),Italian ryegrass [23]; [27],5 (Herbicidal rate of 90% or more (almost completely withered))
same,"Herbicidal effect by soil treatment, K: Italian ryegrass",Italian ryegrass [24],5 (Herbicidal rate of 90% or more (almost completely withered))
